Source: patent US11286268B1, “EIF4E-inhibiting compounds and methods” (EFFECTOR THERAPEUTICS, INC., priority 2019, dated 2022)
Where two headings read alike, the source gives them in different places.

Target: recombinant eIF4E (Homo sapiens (Human), UniProt P06730)
Test: Fluorescence polarization competition assay for eIF4E binding potency
In short: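 Competitive displacement format: compounds compete with a fluorescent m7GDP tracer (20 nM) for 75 nM recombinant eIF4E. Incubation is 30 min at room temperature, protected from light, with 1% DMSO. Polarization read gives IC50 over eight 3-fold concentrations.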

[1] = inhibition of eIF4E/EDA-m7GDP-ATTO-550 binding, calculated IC50 values, Table 4B, read-out: IC50
[2] = fluorescence polarization competition, 75 nM recombinant eIF4E, 20 nM EDA-m7GDP-ATTO-550, IC50 class, read-out: elF4E FP
[3] = inhibition of eIF4E/EDA-m7GDP-ATTO-550 binding by 50%, Table 4B calculated values, read-out: IC50

Sequence of recombinant eIF4E (P06730 whole entry): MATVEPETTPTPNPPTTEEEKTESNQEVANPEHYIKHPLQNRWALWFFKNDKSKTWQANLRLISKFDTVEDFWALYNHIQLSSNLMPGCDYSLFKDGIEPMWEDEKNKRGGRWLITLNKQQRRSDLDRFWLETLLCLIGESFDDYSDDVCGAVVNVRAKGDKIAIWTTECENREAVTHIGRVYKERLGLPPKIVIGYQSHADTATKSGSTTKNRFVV

Row | Compound | IC50 [1] [nM] | IC50 [2] [nM] | IC50 [3] [nM]
1 | Cc1nc2cnc(N3CCN(C4(C(F)F)CC4)CC3)c(C#N)c2c(=O)n1CCOc1ccc(Cl)cc1-c1ccnc2c(C(=O)O)csc12 [compound 1310] | 21.3 |  | 
2 | Cc1nc2cncc(C#N)c2c(=O)n1CC#Cc1ccc(Cl)cc1-c1ccnc2c(C(=O)O)csc12 [compound 624] |  | < 50 | 4.02
3 | Cc1cc(-c2cc(Cl)ccc2OCCn2c(C)nc3cc(C(F)F)c(-c4cccnc4C)c(C#N)c3c2=O)c2scc(C(=O)O)c2n1 [compound 440] |  | < 50 | 4.99
4 | Cc1sc2c(-c3cc(Cl)ccc3OCCn3c(C)nc4cc(C(F)(F)F)c(N5CCN(C)CC5)c(C#N)c4c3=O)ccnc2c1C(=O)O [compound 1093] |  | 50 to 1000 | 58.6
5 | Cc1nc2c(N3CCN(C)CC3(C)C)ncc(C#N)c2c(=O)n1CCOc1ccc(Cl)cc1-c1ccnc2c(C(=O)O)csc12 [compound 816] |  | < 50 | 6.87
6 | Cc1nc2cnc(N3CCN(CCC(F)(F)F)CC3)c(C#N)c2c(=O)n1CCOc1ccc(Cl)cc1-c1ccnc2c(C(=O)O)csc12 [compound 1308] | 41.5 |  | 
7 | O=C(O)c1cccc(-c2cc(Cl)ccc2OCCn2ccc3ccncc3c2=O)c1 [compound 6] |  | > 1000 | 7390
8 | Cc1cc(-c2cc(Cl)ccc2OCCn2c(C)nc3cc(C(F)(F)F)c(C(=O)N(C)C)nc3c2=O)c2scc(C(=O)O)c2n1 [compound 781] |  | < 50 | 3.12
9 | CC(=O)N(C)c1ncc2nc(C)n(CCOc3ccc(Cl)cc3-c3cc(C)nc4c(C(=O)O)csc34)c(=O)c2c1C#N [compound 1053] |  | < 50 | 5.08
10 | Cc1nc2cc(C(F)(F)F)cc(C#N)c2c(=O)n1CCOc1ccncc1-c1ccnc2c(C(=O)O)csc12 [compound 285] |  | 50 to 1000 | 72.5
11 | Cc1nc2cnc(N3CC4(C3)CN(C3CC3(C)C)C4)c(C#N)c2c(=O)n1CCOc1ccc(Cl)cc1-c1ccnc2c(C(=O)O)csc12 (stereo not drawn) [compound 1436] | 29.5 |  | 
12 | Cc1cc(-c2cc(Cl)ccc2OCCn2c(C)nc3cnc(C4(F)CN(C)C4)c(C#N)c3c2=O)c2scc(C(=O)O)c2n1 [compound 1421] | 36.6 |  | 
13 | Cc1nc2cnc(N(C)C3CCN(C(C)(C)C(F)(F)F)CC3)c(C#N)c2c(=O)n1CC#Cc1ccc(Cl)cc1-c1ccnc2c(C(=O)O)csc12 [compound 1507] | 16 |  | 
14 | Cc1nc2cnc(OC3CCN(CCF)CC3)c(C#N)c2c(=O)n1CCOc1ccc(Cl)cc1-c1ccnc2c(C(=O)O)csc12 [compound 1479] | 16.7 |  | 
15 | Cc1nc2cnc(N3CCN(CCCOC(F)F)CC3)c(C#N)c2c(=O)n1CC#Cc1ccc(Cl)cc1-c1ccnc2c(C(=O)O)csc12 [compound 1509] | 37.5 |  | 
16 | Cc1nc2cc(C(F)(F)F)c(-c3cccnc3)c(C#N)c2c(=O)n1CCOc1ccc(Cl)cc1-c1cccc(C(=O)O)c1 [compound 388] |  | < 50 | 6.29
17 | Cc1nc2cc(C(F)(F)F)c(CCN(C)C)c(C#N)c2c(=O)n1CCOc1ccc(Cl)cc1-c1ccnc2ccsc12 [compound 1255] | 150 |  | 
18 | Cc1cc(-c2cc(Cl)ccc2OCCn2c(C)nc3cc(C(F)(F)F)cc(C#N)c3c2=O)c2scc(C(=O)O)c2n1 [compound 121] |  | < 50 | 37.5
19 | O=C(O)c1cc2ccc1CCCCCc1nc3cc(C(F)(F)F)cc(Br)c3c(=O)n1CCOc1ccc(Cl)cc1-2 [compound 2013] | > 10000 |  | 
20 | O=C(O)c1cccc(-c2cc(Cl)ccc2OCCn2ccc3cnccc3c2=O)c1 [compound 5] |  | > 1000 | 7640
21 | CCN(c1ncc2nc(C)n(CC#Cc3ccc(Cl)cc3-c3ccnc4c(C(=O)NS(=O)(=O)c5ccccn5)csc34)c(=O)c2c1C#N)C1CCN([C@H]2C[C@@H](OC(F)(F)F)C2)CC1 [compound 1781] | 8.32 |  | 
22 | Cc1cc(-c2cc(Cl)ccc2OCCn2c(C)nc3cnc(C4(C)CC4)c(C#N)c3c2=O)c2scc(C(=O)O)c2n1 [compound 831] |  | < 50 | 12.3
23 | C#Cc1c(C(=O)O)cccc1-c1cc(Cl)ccc1OCCn1c(C(F)F)nc2cccc(C#N)c2c1=O [compound 165] |  | 50 to 1000 | 106
